For test [1], the target named is T1, A2A receptor (Homo sapiens, UniProt P29274).
T1 construct: host or cells: HEK-293
In words: A2aR antagonism IC50, cAMP TR-FRET in HEK-293 cells, high concentration of adenosine (30 μM).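 Note: compounds added 10 min before adenosine, then 30 min stimulation at room temperature in buffer with 100 µM rolipram and 30 µM EHNA, signal read 1 h after detection reagents.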 The test is classed as cell-based. The conditions noted are these: HEK-293 cells expressing A2A receptor; agonist adenosine 30 μM; 2% HSA; inhibition of cAMP; read-out: A2AR IC50 (nM) (@30 μM Adenosine).

Test [2] deals with T2, A2B receptor (Homo sapiens, UniProt P29275).
T2 sequence (P29275 1-332): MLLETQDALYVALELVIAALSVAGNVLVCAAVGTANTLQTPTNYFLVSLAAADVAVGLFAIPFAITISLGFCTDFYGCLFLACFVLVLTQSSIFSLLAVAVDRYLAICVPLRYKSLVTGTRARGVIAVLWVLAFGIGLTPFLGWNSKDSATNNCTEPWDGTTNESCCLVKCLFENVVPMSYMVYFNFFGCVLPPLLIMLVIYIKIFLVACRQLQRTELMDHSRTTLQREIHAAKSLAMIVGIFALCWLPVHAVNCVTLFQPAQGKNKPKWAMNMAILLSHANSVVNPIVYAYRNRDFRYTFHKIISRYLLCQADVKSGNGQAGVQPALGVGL
In words: A2bR antagonism IC50, cAMP TR-FRET in HEK-293 cells, high concentration of adenosine (30 μM).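 Note: compounds preincubated 10 min with cells, then adenosine stimulation 30 min at room temperature in buffer with Rolipram 100 µM and EHNA 30 µM, TR-FRET read after 1 h.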 The following applies: A2BR IC50 (nM) (@30 μM Adenosine), HEK-293 cells expressing A2B receptor; agonist adenosine 30 μM; 2% HSA; inhibition of cAMP.

Bounds are passed on as bounds.

T1 sequence (P29274 whole entry): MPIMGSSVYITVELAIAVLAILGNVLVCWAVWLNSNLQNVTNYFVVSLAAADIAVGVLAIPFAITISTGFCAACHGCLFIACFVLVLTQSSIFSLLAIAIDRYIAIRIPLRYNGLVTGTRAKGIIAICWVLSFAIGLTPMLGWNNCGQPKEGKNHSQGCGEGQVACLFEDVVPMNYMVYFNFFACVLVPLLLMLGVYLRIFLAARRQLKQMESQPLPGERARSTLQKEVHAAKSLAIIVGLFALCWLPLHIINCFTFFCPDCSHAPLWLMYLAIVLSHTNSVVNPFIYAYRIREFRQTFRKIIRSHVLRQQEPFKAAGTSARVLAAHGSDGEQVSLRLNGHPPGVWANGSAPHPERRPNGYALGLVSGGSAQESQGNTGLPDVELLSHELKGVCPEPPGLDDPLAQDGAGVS

Take `CCc1c(C)nn2c(N)c(C#N)c(NCCc3cccn(CCCNC(C)=O)c3=O)nc12` [Example 145, N-(3-(3-(2-((7-amino-6-cyano-3-ethyl-2-methylpyrazolo[1,5-a]pyrimidin-5-yl)amino)ethyl)-2-oxopyridin-1(2H)-yl)propyl) acetamide]: the IC50 in test [1] stood at 294 nM; in test [2] it was 1130 nM.
On the same counts, the results for `Cc1nn2c(N)c(C#N)c(NCCc3ccn(C4(CO)CC4)n3)nc2c1CC1CC1` [Example 74, 7-amino-3-(cyclopropylmethyl)-5-((2-(1-(1-(hydroxymethyl)cyclopropyl)-1H-pyrazol-3-yl)ethyl)amino)-2-methylpyrazolo[1,5-a]pyrimidine-6-carbonitrile] are 398 nM and 1080 nM.
Taken in the same sequence, the figures for `CCc1c(C)nn2c(N)c(C#N)c(NCCc3ccn(C4CCC4CO)n3)nc12` (single isomer, unassigned; (+)) [Example 78, (+)-7-amino-3-ethyl-5-((2-(1-(2-(hydroxymethyl)cyclobutyl)-1H-pyrazol-3-yl)ethyl)amino)-2-methylpyrazolo[1,5-a]pyrimidine-6-carbonitrile] were 200 nM and 798 nM.
Taken in the same sequence, the figures for `Cc1nn2c(N)c(C#N)c(NCCc3ccn(C4CCC4CO)n3)nc2c1CC1CC1` (stereo not drawn) [Example 116, 7-amino-3-(cyclopropylmethyl)-5-((2-(1-(2-(hydroxymethyl)cyclobutyl)-1H-pyrazol-3-yl)ethyl)amino)-2-methylpyrazolo[1,5-a]pyrimidine-6-carbonitrile] were 427 nM and 2100 nM.
Turning to `Cc1nn2c(N)c(C#N)c(NCCc3cccn(CCCO)c3=O)nc2c1C` [Example 138, 7-amino-5-((2-(1-(3-hydroxypropyl)-2-oxo-1,2-dihydropyridin-3-yl)ethyl)amino)-2,3-dimethylpyrazolo[1,5-a] pyrimidine-6-carbonitrile], the 50% inhibitory concentration (IC50) is 88 nM in test [1] and 2050 nM in test [2].
Consider `CCc1c(C)nn2c(N)c(C#N)c(NCCc3cccn(CCC[S+](C)[O-])c3=O)nc12` (single isomer, unassigned; (-)) [Example 154a, (−)-7-amino-3-ethyl-2-methyl-5-((2-(1-(3-(methylsulfinyl)propyl)-2-oxo-1,2-dihydropyridin-3-yl)ethyl)amino) pyrazolo[1,5-a]pyrimidine-6-carbonitrile], for which the IC50 is 1050 nM in test [1] and 1540 nM in test [2].
Regarding `CCc1c(C)nn2c(N)c(C#N)c(NCCc3ccn(C4(CCN)CC4)n3)nc12` [Example 148, 7-amino-5-((2-(1-(1-(2-aminoethyl)cyclopropyl)-1H-pyrazol-3-yl)ethyl)amino)-3-ethyl-2-methylpyrazolo[1,5-a] pyrimidine-6-carbonitrile], the concentration for half-maximal inhibition (IC50) in test [1] was 161 nM; in test [2] it was 2740 nM.
Take `CCc1c(C)nn2c(N)c(C#N)c(NCCc3cccc(C(C)O)n3)nc12` (racemic) [Example 100, 7-amino-3-ethyl-5-((2-(6-(1-hydroxyethyl)pyridin-2-yl)ethyl)amino)-2-methylpyrazolo[1,5-a] pyrimidine-6-carbonitrile]: the IC50 worked out at 139 nM in test [1] and 1010 nM in test [2].
On the same counts, the results for `CCc1c(C)nn2c(N)c(C#N)c(NCCc3cccc(CCO)n3)nc12` [Example 139, 7-amino-3-ethyl-5-((2-(6-(2-hydroxyethyl)pyridine-2-yl)ethyl)amino)-2-methylpyrazolo[1,5-a]pyrimidine-6-carbonitrile] are 165 nM and 482 nM.
As to `CCc1c(C)nn2c(N)c(C#N)c(NCCc3ccn(C4(CNC(C)=O)CC4)n3)nc12` [Example 147, N-((1-(3-(2-((7-amino-6-cyano-3-ethyl-2-methylpyrazolo[1,5-a]pyrimidin-5-yl)amino)ethyl)-1H-pyrazol-1-yl)cyclopropyl)methyl) acetamide], the IC50 was 363 nM in test [1] and 9080 nM in test [2].
On the same counts, the results for `CCc1c(C)nn2c(N)c(C#N)c(NCCc3cccn(CCOC)c3=O)nc12` [Example 107, 7-amino-3-ethyl-5-((2-(1-(2-methoxyethyl)-2-oxo-1,2-dihydropyridin-3-yl)ethyl)amino)-2-methylpyrazolo[1,5-a] pyrimidine-6-carbonitrile] are 224 nM and 1550 nM.
On the same counts, the results for `Cc1nn2c(N)c(C#N)c(NCCc3ccn(CC4CC(O)C4)n3)nc2c1Cl` (single isomer, unassigned; (+)) [Example 83, (+)-7-amino-3-chloro-5-((2-(1-((3-hydroxycyclobutyl)methyl)-1H-pyrazol-3-yl)ethyl)amino)-2-methylpyrazolo[1,5-a]pyrimidine-6-carbonitrile] are 109 nM and 2650 nM.
Taken in the same sequence, the figures for `CCc1c(C)nn2c(N)c(C#N)c(NCCc3cccn(CCC[S+](C)[O-])c3=O)nc12` (single isomer, unassigned; (+)) [Example 154b, (+)-7-amino-3-ethyl-2-methyl-5-((2-(1-(3-(methylsulfinyl)propyl)-2-oxo-1,2-dihydropyridin-3-yl)ethyl)amino) pyrazolo[1,5-a]pyrimidine-6-carbonitrile] were 1010 nM and 1410 nM.
Consider `Cc1nn2c(N)c(C#N)c(NCCc3cccc(CO)n3)nc2c1Br` [Example 72, 7-amino-3-bromo-5-((2-(6-(hydroxymethyl)pyridine-2-yl)ethyl)amino)-2-methylpyrazolo[1,5-a]pyrimidine-6-carbonitrile], for which the IC50 in test [1] amounted to 362 nM; in test [2], 3120 nM.
For the compound `Cc1nn2c(N)c(C#N)c(NCCc3ccn(C4CCC4CO)n3)nc2c1C` (single isomer, unassigned; (+)) [Example 104a, (+)-7-amino-5-((2-(1-(2-(hydroxymethyl)cyclobutyl)-1H-pyrazol-3-yl)ethyl)amino)-2,3-dimethylpyrazolo[1,5-a]pyrimidine-6-carbonitrile], the results for the IC50 in test [1] and in test [2] were 88 nM and 2260 nM, respectively.
Turning to `Cc1nn2c(N)c(C#N)c(NCCc3ccn(C4(CO)CC4)n3)nc2c1C1CC1` [Example 101, 7-amino-3-cyclopropyl-5-((2-(1-(1-(hydroxymethyl)cyclopropyl)-1H-pyrazol-3-yl)ethyl)amino)-2-methylpyrazolo[1,5-a]pyrimidine-6-carbonitrile], the 50% inhibitory concentration (IC50) is 2100 nM in test [1] and above 15000 nM in test [2].
Taken in the same sequence, the figures for `CCc1cccc(CCNc2nc3c(Cl)c(C)nn3c(N)c2C#N)n1` [Example 120, 7-amino-3-chloro-5-((2-(6-ethylpyridin-2-yl)ethyl)amino)-2-methylpyrazolo[1,5-a]pyrimidine-6-carbonitrile] were 529 nM and 8630 nM.
On the same counts, the results for `CCc1c(C)nn2c(N)c(C#N)c(NCCc3ccn(C4CCC4CNCC(N)=O)n3)nc12` (stereo not drawn) [Example 134, 2-(((2-(3-(2-((7-amino-6-cyano-3-ethyl-2-methylpyrazolo[1,5-a]pyrimidin-5-yl)amino)ethyl)-1H-pyrazol-1-yl)cyclobutyl)methyl)amino) acetamide] are 475 nM and 2510 nM.
On the same counts, the results for `CCCc1c(C)nn2c(N)c(C#N)c(NCCc3cccn(CCCO)c3=O)nc12` [Example 156, 7-amino-5-((2-(1-(3-hydroxypropyl)-2-oxo-1,2-dihydropyridin-3-yl)ethyl)amino)-2-methyl-3-propylpyrazolo[1,5-a]pyrimidine-6-carbonitrile] are 750 nM and 2950 nM.
Consider `CCc1c(C)nn2c(N)c(C#N)c(NCCc3cccc(CO[C@@H]4CCOC4)n3)nc12` [Example 166, (R)-7-amino-3-ethyl-2-methyl-5-((2-(6-(((tetrahydrofuran-3-yl)oxy)methyl)pyridine-2-yl)ethyl)amino) pyrazolo[1,5-a]pyrimidine-6-carbonitrile], for which the concentration for half-maximal inhibition (IC50) was 1420 nM in test [1] and 466 nM in test [2].
Taken in the same sequence, the figures for `Cc1nn2c(N)c(C#N)c(NCCc3cnn(C4(CO)CC4)c3)nc2c1Cl` [Example 73, 7-amino-3-chloro-5-((2-(1-(1-(hydroxymethyl)cyclopropyl)-1H-pyrazol-4-yl)ethyl)amino)-2-methylpyrazolo[1,5-a] pyrimidine-6-carbonitrile] were above 15000 nM and above 15000 nM.
Turning to `Cc1nn2c(N)c(C#N)c(NCCc3ccn(C4(CO)CC4)n3)nc2c1Br` [Example 69, 7-amino-3-bromo-5-((2-(1-(1-(hydroxymethyl)cyclopropyl)-1H-pyrazol-3-yl)ethyl)amino)-2-methylpyrazolo[1,5-a]pyrimidine-6-carbonitrile], the results for the IC50 in test [1] and in test [2] were 68 nM and 2050 nM, respectively.
Take `CCc1c(C)nn2c(N)c(C#N)c(NCCc3ccn(CCC[S+](C)[O-])n3)nc12` (single isomer, unassigned; (-)) [Example 162a, (−)-7-amino-3-ethyl-2-methyl-5-((2-(1-(3-(methylsulfinyl)propyl)-1H-pyrazol-3-yl)ethyl)amino)pyrazolo[1,5-a]pyrimidine-6-carbonitrile]: the half-maximal inhibitory concentration (IC50) turned out to be 1880 nM in test [1] and 5790 nM in test [2].
Take `CCc1c(C)nn2c(N)c(C#N)c(NCCc3cccn(CCCSC)c3=O)nc12` [Example 153, 7-amino-3-ethyl-2-methyl-5-((2-(1-(3-(methylthio)propyl)-2-oxo-1,2-dihydropyridin-3-yl)ethyl)amino)pyrazolo[1,5-a]pyrimidine-6-carbonitrile]: the 50% inhibitory concentration (IC50) in test [1] came to 195 nM; in test [2], 1190 nM.
